Results from US9573966B2, “Anti-cancer activity of novel bicyclic heterocycles” (Katholieke Universiteit Leuven, K.U.Leuven R&D, priority 2010, dated 2017).

Legend:
HSB-2 cells = test: Inhibition of HSB-2 leukemic cell line proliferation (WST-1); assay type: cell-based, human; details: Homo sapiens, HSB2, 48 h, cytotoxicity on HSB-2 cells, two days incubation, WST-1 read-out
Summary of the method: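 HSB-2 human ALL cells, 50000/well in RPMI-1640 + 10% FCS, exposed to compounds 2 days at 37 °C, then WST-1 2 h, OD 450 nm. Proliferation scaled between untreated (max) and Triton X100 (min) controls; IC50 from ≥4-point curves, each point mean of ≥2 experiments.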

HL-60 cells = test: Inhibition of HL-60 leukemic cell line proliferation (WST-1); assay type: cell-based, human; details: Homo sapiens, 48 h; cytotoxicity on HL-60 cells, two days incubation, WST-1 read-out
Summary of the method: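 HL-60 cells, 50000/well, exposed to compounds for two days at 37 °C, then 2 h WST-1 with OD at 450 nm. Proliferation scaled between untreated and Triton X100 controls; IC50 from at least four points, each a mean of ≥2 experiments.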

hu EOL-1 leukemia = tested on: hu EOL-1 leukemia
Protocol: The test compound (Example 222) was dissolved in DMSO (5% final concentration) and further solubilised in 0.5% Tween 80 in 1% methylcellulose. The resulting suspension was warmed for 10 minutes to 37° C. in an ultrasound water bath to obtain a homogeneous formulation for oral administration. At day 0, 24 male NSG mice received a s.c. inoculum of 10^7 EOL-1 cells taken from in vitro culture and mixed with 50% matrigel. At day 10 tumours were palpable, mice were randomized into three treatment groups and therapy initiated. The test compound (Example 222) and the vehicle were administered orally (p.o.) once daily until the end of the experiment. Cyclophosphamide was administered only once intraperitoneally (i.p.).

LNCaP cells = test: Inhibition of LNCaP prostate carcinoma cell line proliferation (WST-1); assay type: cell-based; details: Homo sapiens, 48 h; cytotoxicity on LNCaP cells, two days incubation, WST-1 read-out
Protocol: LNCaP cell line, a prostate carcinoma cell line, was grown in RPMI-1640 medium (Lonza, Belgium) supplemented with 10% fetal calf serum (Hyclone, US) and antibiotics. Exponential growing phase cells were seed in flat bottom 96-well microplates (TTP, Switzerland) at 10000 cells per well in 200 μl of medium. The day after, 20 μl of compounds (in different concentrations) were added and incubated for two days at 37° C., 5% CO2. After incubation, 100 μl of supernatant were removed and 10 μl of WST-1 (Roche, Switzerland) were added. After 2 hour incubation at 37° C., 5% CO2, optical densities were measured at 450 nm. Proliferation is calculated with respect of control points (no compound and treatment with Triton X100 to have maximum and minimum proliferation data). The IC50 was determined from a graph with at least four points, each derived from the mean of at least 2 experiments. […] The results are shown in Table 3 for a number of compounds.

Row | melting point | Structure (SMILES) | IC50 (HSB-2 cells) | IC50 (HL-60 cells) | behavioural changes or deaths (hu EOL-1 leukemia; EOL-1 xenograft in NSG mice, Example 222 p.o. once daily) | antileukemic activity (hu EOL-1 leukemia; EOL-1 xenograft model, conclusion) | body weight loss (hu EOL-1 leukemia; mouse, in vivo) | tolerability (hu EOL-1 leukemia; mouse, in vivo) | effect on tumour growth (tumour volume) relative to vehicle (hu EOL-1 leukemia; s.c. EOL-1 tumours in NSG mice, therapy from day 10 to day 21, Example 222 p.o. once daily, cyclophosphamide once i.p.) | IC50 (LNCaP cells)
1 | 142 °C | CCOc1nc(N)nc2sc(-c3ccc(F)cc3)cc12 [Example 363, 4-ethoxy-6-(4-fluorophenyl)thieno[2,3-d]pyrimidin-2-amine] |  |  |  |  |  |  |  | 
2 |  | Cc1ccc(NC(=O)N2CCN(c3nc(N)nc4sc(-c5cccnc5)nc34)CC2)cc1 [Example 222, 4-(5-amino-2-(pyridin-3-yl)thiazolo[5,4-d]pyrimidin-7-yl)-N-p-tolylpiperazine-1-carboxamide] | 50 nM | 50 nM | did not lead to any behavioural changes or deaths | significant antileukemic activity | 11% | well tolerated | moderate but significant (p<0.05) delay of tumour growth | 2870 nM
